The source of these data is US7094593B1, “Method for improving the function of heterologous G protein-coupled receptors” (priority 1998, dated 2006).

The target in test [1] is IC3Δ human alpha2A adrenergic receptor (Homo sapiens, UniProt P08913, DEL273-347).
Procedure: (§2) Yeast cells containing the wild type IC3Δ human alpha2A adrenergic receptor were assayed in liquid culture using the alpha adrenergic receptor full agonist UK14304 (RBI) and partial agonist clonidine.
For test [2], the target named is wild type human alpha2A adrenergic receptor (Homo sapiens, UniProt P08913). Conditions: yeast cells containing wild type receptor, 18 hours.
Procedure: as §2
Another test concerns the target T1, DMAR-M3 MAR IC3Δ (Drosophila melanogaster, UniProt P16395, C285T/D301E/F279L/F286I/K296E/N304G/P303A/Q299T/R293K/W292Y).
T1 construct: expressed in transfected cells; host or cells: Saccharomyces cerevisiae MPY578fc, plasmid p426GPD
Nature of the test: Liquid culture yeast growth assay, mutated DMAR containing the M3 MAR IC3Δ. As to conditions: yeast cells containing mutated DMAR with M3 MAR IC3Δ. The class given is cell-based, D. melanogaster. As to the method:
(§1) In order to construct the IC3 replacement, PCR fragments encoding three domains were prepared by standard means. Fragment 1 consisted of the amino terminal coding portion of the Drosophila MAR up to an Agel site within the 5th TMD, amplified by PCR using oligonucleotides (AAA AGATCT AAA ATG […]) (SEQ ID NO: 7) and (CCA GTA GAG GAA […] AGGCCT AAGTAGAAGGCGGCCAGTGC) (SEQ ID NO: 8). The second fragment of the DMAR was composed of carboxy terminal coding sequences starting with a PmII site in the 6th TMD, amplified by PCR using oligonucleotides ([…]) (SEQ ID NO: 9) and (AAA CTCGAG […]) (SEQ ID NO: 10). The M3 MAR IC3Δ domain was amplified as an Agel-PmII fragment with coding sequence in frame with fragments 1 and 2, described in Example 1. These fragments were assembled in plasmid p426GPD to place the mutated DMAR under control of the GPD promoter. The wild type DMAR was cloned into the expression vector, pMP3, described in U.S. Pat. No. 5,691,188.

For test [3], the target named is T2, wild type D. melanogaster MAR (DMAR) (Drosophila melanogaster, UniProt P16395).
T2 construct: expressed in transfected cells; host or cells: Saccharomyces cerevisiae MPY578fc, plasmid pMP3
T2 sequence (P16395 1-805): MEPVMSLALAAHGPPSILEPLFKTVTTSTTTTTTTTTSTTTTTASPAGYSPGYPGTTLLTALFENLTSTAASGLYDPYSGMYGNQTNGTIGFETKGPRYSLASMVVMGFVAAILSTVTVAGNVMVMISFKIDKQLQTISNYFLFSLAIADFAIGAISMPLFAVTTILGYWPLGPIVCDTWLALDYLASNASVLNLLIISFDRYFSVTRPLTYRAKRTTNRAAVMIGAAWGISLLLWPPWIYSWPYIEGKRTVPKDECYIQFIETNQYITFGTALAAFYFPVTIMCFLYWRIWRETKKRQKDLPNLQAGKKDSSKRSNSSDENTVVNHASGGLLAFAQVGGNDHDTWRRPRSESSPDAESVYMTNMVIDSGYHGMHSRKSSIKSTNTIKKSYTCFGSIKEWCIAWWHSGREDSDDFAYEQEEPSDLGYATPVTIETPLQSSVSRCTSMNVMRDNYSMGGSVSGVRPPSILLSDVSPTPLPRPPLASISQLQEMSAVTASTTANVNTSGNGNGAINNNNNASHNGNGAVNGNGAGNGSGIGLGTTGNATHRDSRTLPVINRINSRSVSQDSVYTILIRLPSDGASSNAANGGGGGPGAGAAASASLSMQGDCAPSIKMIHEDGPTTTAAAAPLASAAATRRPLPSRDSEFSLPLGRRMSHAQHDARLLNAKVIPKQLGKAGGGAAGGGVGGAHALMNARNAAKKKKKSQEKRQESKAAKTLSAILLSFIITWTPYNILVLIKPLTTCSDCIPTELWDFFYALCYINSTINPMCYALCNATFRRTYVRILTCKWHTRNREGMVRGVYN
Briefly: Liquid culture yeast growth assay, wild type DMAR. The class given is cell-based. As to conditions: yeast cells containing wild type DMAR. As to the method:
as §1

In another test the test system is Ce 5HTR-M3 MAR IC3Δ. Nature of the test: Liquid culture yeast growth assay, Ce 5HTR containing the M3 MAR IC3Δ. As to conditions: for antagonist effect on growth inducing effect of serotonin: antagonist at 10 μM. Format: cell-based, C. elegans. As to the method:
In order to construct the IC3 replacement, PCR fragments encoding three domains were prepared by standard means. Fragment 1 contains the amino terminal-coding portion of the Ce 5HTR to the intracellular interface of the 5th TMD, amplified by PCR using oligonucleotides ([…]) (SEQ ID NO: 27) and ([…] […] […]) (SEQ ID NO: 28). The second fragment of the Ce 5HTR contains carboxy-terminal coding sequences starting proximal to the intracellular interface of the 6th TMD, amplified by PCR using oligonucleotides ([…]) (SEQ ID NO: 29) and ([…] […] […]) (SEQ ID NO: 30). The M3 MAR IC3Δ domain was amplified by PCR as described in Example 1.
These fragments were isolated, mixed and amplified by PCR with 5′ ([…]) (SEQ ID NO: 27) and 3′ ([…]) ([…]) oligonucleotides. The resulting fragment was digested with appropriate restriction endonucleases and assembled in p426GPD to place the mutated Ce 5HTR under control of the GPD promoter.
Yeast cells containing the Ce 5HTR were assayed in liquid culture. […] In similar reactions, the serotonergic antagonists lisuride and mianserin were added to each well at 10 μM. […] Ki values were determined using the equation of Cheng and Pruesoff. (Y Cheng et al. (1973)).

Chain of wild type human alpha2A adrenergic receptor (P08913 whole entry): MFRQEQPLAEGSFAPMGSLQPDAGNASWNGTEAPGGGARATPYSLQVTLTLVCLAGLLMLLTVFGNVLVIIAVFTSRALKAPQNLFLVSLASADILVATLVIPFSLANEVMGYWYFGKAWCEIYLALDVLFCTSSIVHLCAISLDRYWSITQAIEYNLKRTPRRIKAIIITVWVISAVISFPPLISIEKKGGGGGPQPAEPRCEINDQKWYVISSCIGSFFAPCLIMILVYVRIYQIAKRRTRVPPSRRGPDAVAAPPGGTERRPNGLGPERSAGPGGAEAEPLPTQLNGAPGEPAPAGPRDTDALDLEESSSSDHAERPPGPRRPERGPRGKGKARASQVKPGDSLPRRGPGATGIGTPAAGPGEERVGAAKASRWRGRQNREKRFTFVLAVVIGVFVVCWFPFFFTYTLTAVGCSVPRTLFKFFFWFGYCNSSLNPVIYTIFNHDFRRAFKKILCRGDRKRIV
T1 sequence (P16395 other isoform, or with tags, fused parts or gaps F279L/C285T/F286I/W292Y/R293K/K296E/Q299T/D301E/P303A/N304G): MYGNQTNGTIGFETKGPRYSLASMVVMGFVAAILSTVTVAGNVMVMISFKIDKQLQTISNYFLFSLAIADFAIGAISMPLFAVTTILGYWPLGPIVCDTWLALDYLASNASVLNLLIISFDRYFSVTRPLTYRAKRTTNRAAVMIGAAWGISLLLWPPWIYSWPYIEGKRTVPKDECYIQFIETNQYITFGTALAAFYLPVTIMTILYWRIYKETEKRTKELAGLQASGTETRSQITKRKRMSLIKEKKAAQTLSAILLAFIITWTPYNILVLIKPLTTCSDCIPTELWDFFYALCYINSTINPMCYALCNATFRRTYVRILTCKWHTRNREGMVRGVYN
Chain of IC3Δ human alpha2A adrenergic receptor (P08913 with tags, fused parts or gaps DEL273-347 limits assumed): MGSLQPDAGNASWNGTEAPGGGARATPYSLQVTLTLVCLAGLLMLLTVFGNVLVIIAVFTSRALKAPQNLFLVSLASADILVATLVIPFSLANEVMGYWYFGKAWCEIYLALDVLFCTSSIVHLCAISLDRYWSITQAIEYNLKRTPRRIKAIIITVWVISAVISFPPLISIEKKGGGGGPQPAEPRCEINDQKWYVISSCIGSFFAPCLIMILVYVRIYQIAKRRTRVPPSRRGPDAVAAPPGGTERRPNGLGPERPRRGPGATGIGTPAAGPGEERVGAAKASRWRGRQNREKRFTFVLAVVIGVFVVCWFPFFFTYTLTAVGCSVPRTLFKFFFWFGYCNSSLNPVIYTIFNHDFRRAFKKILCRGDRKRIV

Regarding `Brc1c(NC2=NCCN2)ccc2nccnc12` [UK14304], the “yeast cell growth response” value in test [1] and in test [2] was “dose-dependent growth response” in each case.
As for `C[N+](C)(C)CCOC(N)=O` [carbachol], the figures for the “agonist-dependent yeast cell growth” value (at DMAR-M3 MAR IC3Δ; in test [3]) were “agonist-dependent growth response” and “lack of agonist-dependent yeast cell growth”, respectively.
Regarding `CCN(CC)C(=O)N[C@H]1C=C2c3cccc4[nH]cc(c34)C[C@H]2N(C)C1` [lisuride], the “antagonist effect on growth inducing effect of serotonin” value in the test with Ce 5HTR-M3 MAR IC3Δ was “blocked”.
On the same count and under the same terms, under `CN1CCN2c3ccccc3Cc3ccccc3C2C1` (stereo not shown) [mianserin] stands “blocked”.
As to `NCCc1c[nH]c2ccc(O)cc12` [serotonin], in the test on Ce 5HTR-M3 MAR IC3Δ (yeast cells containing Ce 5HTR-M3 MAR IC3Δ, 18 hours), the “agonist-dependent yeast cell growth” value is on record as “agonist-dependent growth response”.
